# Tests used:
# Italian ryegrass = assay: Test Example 4: herbicidal effect by soil treatment (Table 19, symbol K); assay type: in vivo, Italian ryegrass (Lolium multiflorum); details: amount of applied herbicide 320 g/ha
# How it was run: (§1)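 Applied as a water-diluted emulsion, the compound was sprayed onto soil covering newly sown seeds. Evaluation came three weeks after application, in a greenhouse held at 25° C. to 30° C.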
# wild oat [1] = assay: Test Example 5: herbicidal effect by foliage application, plastic box (Table 20, symbol I); assay type: in vivo, wild oat (Avena fatua); details: foliage application, 320 g/ha, three weeks after application
# How it was run: (§2)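 Sow seeds spot-wise in sterilized diluvial soil; cover with ~1.5 cm soil. Grow 14 days in greenhouse, 25° C. to 30° C. Spray foliage with emulsion diluted to predetermined amount. Rate effect after 3 weeks.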
# late watergrass = assay: Test Example 1: herbicidal activity, application before weed generation under submerged conditions (Table 16, symbol A); assay type: in vivo, late watergrass (Echinochloa oryzicola); details: amount of applied herbicide 320 g/ha
# How it was run: (§3)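 Alluvial soil was flooded to 4 cm depth, weed seeds were sown mixed and 2.5-leaf rice seedlings were transplanted. On sowing day, the compound's emulsion, diluted in water to a set dose, was applied to the water surface. Plants grew at 25–30 °C and were scored 0–5 after three weeks.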
# Japanese bulrush [2] = assay: Test Example 1: herbicidal activity, application before weed generation under submerged conditions (Table 16, symbol B); assay type: in vivo, Japanese bulrush (Schoenoplectus juncoides); details: amount of applied herbicide 320 g/ha
# How it was run: as §3
# barnyard grass [3] = assay: Test Example 5: herbicidal effect by foliage application, plastic box (Table 20, symbol H); assay type: in vivo, barnyard grass (Echinochloa crus-galli); details: foliage application, 320 g/ha, three weeks after application
# How it was run: as §2
# southern crabgrass = assay: Test Example 4: herbicidal effect by soil treatment (Table 19, symbol F); assay type: in vivo, southern crabgrass (Digitaria ciliaris); details: amount of applied herbicide 320 g/ha
# How it was run: as §1
# false cleavers [4] = assay: Test Example 4: herbicidal effect by soil treatment (Table 19, symbol Q); assay type: in vivo, false cleavers (Galium spurium); details: amount of applied herbicide 320 g/ha
# How it was run: as §1
# barnyard grass [5] = assay: Test Example 4: herbicidal effect by soil treatment (Table 19, symbol H); assay type: in vivo, barnyard grass (Echinochloa crus-galli); details: amount of applied herbicide 320 g/ha
# How it was run: as §1
# wild oat [6] = assay: Test Example 4: herbicidal effect by soil treatment (Table 19, symbol I); assay type: in vivo, wild oat (Avena fatua); details: amount of applied herbicide 320 g/ha
# How it was run: as §1
# blackgrass [7] = assay: Test Example 4: herbicidal effect by soil treatment (Table 19, symbol J); assay type: in vivo, blackgrass (Alopecurus myosuroides); details: amount of applied herbicide 320 g/ha
# How it was run: as §1
# redroot pigweed [8] = assay: Test Example 4: herbicidal effect by soil treatment (Table 19, symbol N); assay type: in vivo, redroot pigweed (Amaranthus retroflexus); details: amount of applied herbicide 320 g/ha
# How it was run: as §1
# Japanese bulrush [9] = assay: Test Example 2: herbicidal activity, application during weed generation under submerged conditions (Table 17, symbol B); assay type: in vivo, Japanese bulrush (Schoenoplectus juncoides); details: AAH 320 g/ha; application during weed generation, submerged conditions
# How it was run: (§4)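 In this pot test, flooded alluvial soil (water depth 4 cm) holds all three species sown as a mixture. Once seedlings have one to two leaves, the compound's emulsion, thinned with water to the intended dose, is poured on the water; grading follows after three weeks on the earlier criteria.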
# oval-leafed pondweed = assay: Test Example 2: herbicidal activity, application during weed generation under submerged conditions (Table 17, symbol C); assay type: in vivo, oval-leafed pondweed (Monochoria vaginalis); details: AAH 320 g/ha; application during weed generation, submerged conditions
# How it was run: as §4
# redroot pigweed [10] = assay: Test Example 5: herbicidal effect by foliage application, plastic box (Table 20, symbol N); assay type: in vivo, redroot pigweed (Amaranthus retroflexus); details: foliage application, 320 g/ha, three weeks after application
# How it was run: as §2
# green foxtail = assay: Test Example 5: herbicidal effect by foliage application, plastic box (Table 20, symbol G); assay type: in vivo, green foxtail (Setaria viridis); details: foliage application, 320 g/ha, three weeks after application
# How it was run: as §2
# blackgrass [11] = assay: Test Example 5: herbicidal effect by foliage application, plastic box (Table 20, symbol J); assay type: in vivo, blackgrass (Alopecurus myosuroides); details: foliage application, 320 g/ha, three weeks after application
# How it was run: as §2
# false cleavers [12] = assay: Test Example 5: herbicidal effect by foliage application, plastic box (Table 20, symbol Q); assay type: in vivo, false cleavers (Galium spurium); details: foliage application, 320 g/ha, three weeks after application
# How it was run: as §2
# chickweed = assay: Test Example 5: herbicidal effect by foliage application, plastic box (Table 20, symbol P); assay type: in vivo, common chickweed (Stellaria media); details: foliage application, 320 g/ha, three weeks after application
# How it was run: as §2
SMILES,"herbicidal effect, K: Italian ryegrass (Italian ryegrass)","I: wild oat, herbicidal effect grade (wild oat [1])","Herbicidal effect, A: late watergrass (late watergrass)","Herbicidal effect, B: Japanese bulrush (Japanese bulrush [2])","H: barnyard grass, herbicidal effect grade (barnyard grass [3])","herbicidal effect, F: southern crabgrass (southern crabgrass)","herbicidal effect, Q: false cleavers (false cleavers [4])","herbicidal effect, H: barnyard grass (barnyard grass [5])","herbicidal effect, I: wild oat (wild oat [6])","herbicidal effect, J: blackgrass (blackgrass [7])","herbicidal effect, N: redroot pigweed (redroot pigweed [8])","herbicidal effect rating, B: Japanese bulrush (Japanese bulrush [9])","herbicidal effect rating, C: oval-leafed pondweed (oval-leafed pondweed)","N: redroot pigweed, herbicidal effect grade (redroot pigweed [10])","G: green foxtail, herbicidal effect grade (green foxtail)","J: blackgrass, herbicidal effect grade (blackgrass [11])","Q: false cleavers, herbicidal effect grade (false cleavers [12])","P: chickweed, herbicidal effect grade (chickweed)"
COc1cc(F)ccc1-c1sc2cc(F)ccc2c1-c1c(O)c(C)nn(C)c1=O [3-009],4 (Herbicidal rate of 70% or more and less than 90%),5 (Herbicidal rate of 90% or more (almost completely withered)),1 (Herbicidal rate of 5% or more and less than 20%),3 (Herbicidal rate of 40% or more and less than 70%),5 (Herbicidal rate of 90% or more (almost completely withered)),5 (Herbicidal rate of 90% or more (almost completely withered)),5 (Herbicidal rate of 90% or more (almost completely withered)),5 (Herbicidal rate of 90% or more (almost completely withered)),4 (Herbicidal rate of 70% or more and less than 90%),4 (Herbicidal rate of 70% or more and less than 90%),5 (Herbicidal rate of 90% or more (almost completely withered)),1 (Herbicidal rate of 5% or more and less than 20%),3 (Herbicidal rate of 40% or more and less than 70%),5 (Herbicidal rate of 90% or more (almost completely withered)),5 (Herbicidal rate of 90% or more (almost completely withered)),5 (Herbicidal rate of 90% or more (almost completely withered)),5 (Herbicidal rate of 90% or more (almost completely withered)),5 (Herbicidal rate of 90% or more (almost completely withered))
CCOc1cc(F)ccc1-c1sc2cc(F)ccc2c1-c1c(O)c(C)nn(C)c1=O [3-011],3 (Herbicidal rate of 40% or more and less than 70%),5 (Herbicidal rate of 90% or more (almost completely withered)),5 (Herbicidal rate of 90% or more (almost completely withered)),4 (Herbicidal rate of 70% or more and less than 90%),5 (Herbicidal rate of 90% or more (almost completely withered)),5 (Herbicidal rate of 90% or more (almost completely withered)),5 (Herbicidal rate of 90% or more (almost completely withered)),5 (Herbicidal rate of 90% or more (almost completely withered)),4 (Herbicidal rate of 70% or more and less than 90%),5 (Herbicidal rate of 90% or more (almost completely withered)),5 (Herbicidal rate of 90% or more (almost completely withered)),3 (Herbicidal rate of 40% or more and less than 70%),4 (Herbicidal rate of 70% or more and less than 90%),5 (Herbicidal rate of 90% or more (almost completely withered)),5 (Herbicidal rate of 90% or more (almost completely withered)),5 (Herbicidal rate of 90% or more (almost completely withered)),5 (Herbicidal rate of 90% or more (almost completely withered)),5 (Herbicidal rate of 90% or more (almost completely withered))
CCCC(=O)Oc1c(C)nn(C)c(=O)c1-c1c(-c2ccc(F)cc2OCC)sc2cc(F)ccc12 [3-012],3 (Herbicidal rate of 40% or more and less than 70%),5 (Herbicidal rate of 90% or more (almost completely withered)),5 (Herbicidal rate of 90% or more (almost completely withered)),5 (Herbicidal rate of 90% or more (almost completely withered)),5 (Herbicidal rate of 90% or more (almost completely withered)),3 (Herbicidal rate of 40% or more and less than 70%),5 (Herbicidal rate of 90% or more (almost completely withered)),3 (Herbicidal rate of 40% or more and less than 70%),3 (Herbicidal rate of 40% or more and less than 70%),4 (Herbicidal rate of 70% or more and less than 90%),4 (Herbicidal rate of 70% or more and less than 90%),5 (Herbicidal rate of 90% or more (almost completely withered)),4 (Herbicidal rate of 70% or more and less than 90%),5 (Herbicidal rate of 90% or more (almost completely withered)),4 (Herbicidal rate of 70% or more and less than 90%),5 (Herbicidal rate of 90% or more (almost completely withered)),5 (Herbicidal rate of 90% or more (almost completely withered)),5 (Herbicidal rate of 90% or more (almost completely withered))
Cc1nn(C)c(=O)c(-c2c(-c3ccc4c(c3)OCCO4)sc3cc(F)ccc23)c1O [3-013],0 (Herbicidal rate of 5% or less (almost no effect)),0 (Herbicidal rate of 5% or less (almost no effect)),3 (Herbicidal rate of 40% or more and less than 70%),3 (Herbicidal rate of 40% or more and less than 70%),3 (Herbicidal rate of 40% or more and less than 70%),4 (Herbicidal rate of 70% or more and less than 90%),4 (Herbicidal rate of 70% or more and less than 90%),5 (Herbicidal rate of 90% or more (almost completely withered)),0 (Herbicidal rate of 5% or less (almost no effect)),0 (Herbicidal rate of 5% or less (almost no effect)),4 (Herbicidal rate of 70% or more and less than 90%),0 (Herbicidal rate of 5% or less (almost no effect)),3 (Herbicidal rate of 40% or more and less than 70%),5 (Herbicidal rate of 90% or more (almost completely withered)),4 (Herbicidal rate of 70% or more and less than 90%),0 (Herbicidal rate of 5% or less (almost no effect)),5 (Herbicidal rate of 90% or more (almost completely withered)),5 (Herbicidal rate of 90% or more (almost completely withered))

# From patent publication US20230085307A1, “PYRIDAZINONE COMPOUND AND HERBICIDE” (NISSAN CHEMICAL CORPORATION, priority 2019, published 2023)
